From patent publication US8034940B2, “Modulators of glucocorticoid receptor, AP-1, and/or NF-κB activity and use thereof” (Bristol-Myers Squibb Company, priority 2006, dated 2011)

Key:
[1] = target: T1, human full-length glucocorticoid receptor (Homo sapiens, UniProt P04150); test: Glucocorticoid Receptor Binding Assay (II), fluorescence polarization, FITC-dexamethasone; set-up: recombinantly expressed human full-length glucocorticoid receptor; purchased PanVera Co., Madison P2816; conditions: GR Binding Assay (II); read-out: GR (Ki, nM) (GR Binding Assay (II))
T1 sequence (P04150 1-777): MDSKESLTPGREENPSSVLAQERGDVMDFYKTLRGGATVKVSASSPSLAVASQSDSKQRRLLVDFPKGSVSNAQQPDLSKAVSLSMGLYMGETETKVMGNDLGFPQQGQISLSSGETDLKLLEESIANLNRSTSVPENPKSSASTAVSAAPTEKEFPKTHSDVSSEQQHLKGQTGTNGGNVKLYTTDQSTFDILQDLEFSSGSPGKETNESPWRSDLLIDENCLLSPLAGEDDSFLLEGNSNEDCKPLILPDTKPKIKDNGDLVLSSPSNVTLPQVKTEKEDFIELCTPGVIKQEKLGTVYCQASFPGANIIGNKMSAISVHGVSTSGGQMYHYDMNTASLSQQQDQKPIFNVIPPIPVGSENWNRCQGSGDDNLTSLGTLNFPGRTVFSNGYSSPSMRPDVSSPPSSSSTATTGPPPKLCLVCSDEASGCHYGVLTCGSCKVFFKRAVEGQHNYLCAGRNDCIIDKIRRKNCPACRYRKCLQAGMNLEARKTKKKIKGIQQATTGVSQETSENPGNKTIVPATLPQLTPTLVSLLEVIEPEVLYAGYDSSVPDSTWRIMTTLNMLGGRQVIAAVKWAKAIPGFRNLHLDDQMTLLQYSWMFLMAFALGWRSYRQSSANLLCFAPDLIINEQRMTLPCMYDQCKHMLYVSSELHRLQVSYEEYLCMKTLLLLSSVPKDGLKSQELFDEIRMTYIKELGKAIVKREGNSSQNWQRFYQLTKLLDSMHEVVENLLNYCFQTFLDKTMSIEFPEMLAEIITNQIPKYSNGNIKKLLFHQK
Description: Glucocorticoid Receptor Binding Assay (II)^b
In order to measure the binding of compounds on the glucocorticoid receptor a commercially available kit was used (Glucocorticoid receptor competitor assay kit, PanVera Co., Madison, W1, P2816). Briefly, a cell lysate containing recombinantly expressed human full-length glucocorticoid receptor was mixed with a fluorescently labeled glucocorticoid (4 nM FITC-dexamethasone) plus or minus test molecule. After one hour at room temperature, the fluorescence polarization (FP) of the samples were measured. […] Test molecules were analyzed in the concentration range from 0.1 nM to 40 μM.

[2] = system: AP-1 induced transcriptional activity; test: Cellular Transrepressional Assay (AP-1 luciferase reporter, PMA-activated A549 cells); format: cell-based; conditions: Homo sapiens, A549, 7 h, maximum inhibition, Cellular Transrepression Assay; read-out: AP-1 Max % inh (Cellular Transrepression Assay)
Method in brief: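 A549 cells stably carrying a 7× AP-1–luciferase reporter were stimulated with 10 ng/ml PMA with or without compound (0.1 nM–40 μM) for 7 h. Luminescence read 10 min after luciferase reagent; EC50 fitted from % decrease versus PMA-only signal.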

[3] = target: T1, human full-length glucocorticoid receptor; test: Glucocorticoid Receptor Binding Assay (I), fluorescence polarization, Fluormone GS Red; set-up: purified human recombinant full-length glucocorticoid receptor; purchased Invitrogen Part #2893
Description: Glucocorticoid Receptor Binding Assay (I)^a
Briefly, purified human recombinant full-length glucocorticoid receptor (2 nM) was mixed with fluorescently labeled glucocorticoid (1 nM Fluormone GS Red) in the presence or absence of test compound. After two hour incubation at room temperature in the dark, the fluorescence polarization (FP) of the samples was measured. […] Test compounds were analyzed in the concentration range from 8.5E-05 μM to 5 μM.

[4] = GR Binding Assay (I), read-out: GR (Ki, nM) (GR Binding Assay (I))

| SMILES | Ki [1] | Emax [2] | Ki [3, 4] | Ki [3] |
| --- | --- | --- | --- | --- |
| COc1ccc(CNc2ccc3c(n2)Oc2ccccc2[C@H]3C(C)(C)C(=O)Nc2nncs2)cc1 (racemic) [Example 136] | 141 nM | – | – | – |
| CC(C)(C(=O)Nc1nccs1)C1c2ccccc2Sc2ccccc21 [Example 9] | 154 nM | – | – | – |
| CC(C)(C(=O)Nc1nccs1)C1c2ccccc2-c2ccc(O)cc21 (stereo not shown) [Example 22] | 1640 nM | – | – | – |
| CCOC(=O)c1csc(NC(=O)C(C)(C)C2c3ccccc3CCc3ccccc32)n1 [Example 23] | 445 nM | – | – | – |
| CC(C)(C(=O)Nc1nccs1)C1c2ccccc2CCc2ccccc21 [Example 25] | 41.1 nM | – | – | – |
| CC(C)(C(=O)Nc1nc(Cc2ccccc2)cs1)C1c2ccccc2Oc2ccccc21 [Example 36] | 1040 nM | – | – | – |
| CC(C)(C(=O)Nc1nccs1)C1c2ccccc2Oc2ccccc21 [Example 37] | 1.4 nM | – | – | – |
| CC(C)(C(=O)Nc1nncs1)C1c2ccccc2Oc2ccccc21 [Example 39] | 39.7 nM | – | – | – |
| CC(C)CCN(C)C(=O)c1ccc(-c2ccc3c(n2)Oc2ccccc2[C@@H]3C(C)(C)C(=O)Nc2nncs2)cc1 [Example 270] | – | 28% | 20.9 nM | – |
| CC1CN(C(=O)c2ccc(-c3ccc4c(n3)Oc3ccccc3[C@@H]4C(C)(C)C(=O)Nc3nncs3)cc2)CC(C)O1 (stereo partly shown) [Example 273] | – | 21% | 19.9 nM | – |
| CC(C)(C(=O)Nc1nncs1)[C@H]1c2ccccc2Oc2nc(-c3ccc(C(=O)N4CCN(CCO)CC4)cc3)ccc21 [Example 275] | – | 26% | 2.6 nM | – |
| CN(CCc1ccccc1)C(=O)c1ccc(-c2ccc3c(n2)Oc2ccccc2[C@@H]3C(C)(C)C(=O)Nc2nncs2)cc1 [Example 276] | – | 27.2% | 4.05 nM | – |
| CC(=O)N1CCCN(C(=O)c2ccc(-c3ccc4c(n3)Oc3ccccc3[C@@H]4C(C)(C)C(=O)Nc3nncs3)cc2)CC1 [Example 277] | – | 24.5% | 81.3 nM | – |
| CC(C)(C(=O)Nc1nncs1)[C@H]1c2ccccc2Oc2nc(-c3ccc(C(=O)N4CCc5ccccc5C4)cc3)ccc21 [Example 280] | – | 33.5% | 10.8 nM | – |
| CCS(=O)(=O)N1CCN(C(=O)c2ccc(-c3ccc4c(n3)Oc3ccccc3[C@@H]4C(C)(C)C(=O)Nc3nncs3)cc2)CC1 [Example 283] | – | 24.6% | 9.21 nM | – |
| COC[C@H]1CCCN1C(=O)c1ccc(-c2ccc3c(n2)Oc2ccccc2[C@@H]3C(C)(C)C(=O)Nc2nncs2)cc1 [Example 285] | – | 45.3% | 5.84 nM | – |
| CN(CCS(C)(=O)=O)C(=O)c1ccc(-c2ccc3c(n2)Oc2ccccc2[C@@H]3C(C)(C)C(=O)Nc2nncs2)cc1 [Example 286] | – | 49.8% | 12.2 nM | – |
| CC(C)(C(=O)Nc1nncs1)[C@H]1c2ccccc2Oc2nc(-c3ccc(C(=O)N4CCC(S(C)(=O)=O)C4)cc3)ccc21 (stereo partly shown) [Example 288] | – | 35.5% | 13.8 nM | – |
| COC1CN(C(=O)c2ccc(-c3ccc4c(n3)Oc3ccccc3[C@@H]4C(C)(C)C(=O)Nc3nncs3)cc2)C1 [Example 289] | – | 24.3% | 20 nM | – |
| CC(C)(C(=O)Nc1nncs1)[C@H]1c2ccccc2Oc2nc(-c3ccc(C(=O)N4CCC(C(F)(F)F)CC4)cc3)ccc21 [Example 290] | – | 28.8% | 20.4 nM | – |
| COC(=O)[C@H]1CCCCN1C(=O)c1ccc(-c2ccc3c(n2)Oc2ccccc2[C@@H]3C(C)(C)C(=O)Nc2nncs2)cc1 [Example 291] | – | 27% | 44 nM | – |
| COC(=O)CN(C)C(=O)c1ccc(-c2ccc3c(n2)Oc2ccccc2[C@@H]3C(C)(C)C(=O)Nc2nncs2)cc1 [Example 293] | – | 25.4% | 10.4 nM | – |
| CN(CCO)C(=O)c1ccc(-c2ccc3c(n2)Oc2ccccc2[C@@H]3C(C)(C)C(=O)Nc2nncs2)cc1 [Example 294] | – | 59.4% | 29.3 nM | – |
| COCCN(C)C(=O)c1ccc(-c2ccc3c(n2)Oc2ccccc2[C@@H]3C(C)(C)C(=O)Nc2nncs2)cc1 [Example 295] | – | 24.4% | 38.7 nM | – |

| SMILES | Ki [1] | Emax [2] | Ki [3, 4] | Ki [3] |
| --- | --- | --- | --- | --- |
| CC(C)(C(=O)Nc1nncs1)[C@H]1c2ccccc2Oc2nc(-c3ccc(C(=O)N4CCCN(Cc5ccccc5)CC4)cc3)ccc21 [Example 298] | – | 25.4% | 242 nM | – |
| CN(Cc1ccncc1)C(=O)c1ccc(-c2ccc3c(n2)Oc2ccccc2[C@@H]3C(C)(C)C(=O)Nc2nncs2)cc1 [Example 301] | – | 28.6% | 20.3 nM | – |
| CC(C)(C(=O)Nc1nncs1)[C@H]1c2ccccc2Oc2nc(-c3ccc(C(=O)N4CCCN(CCO)CC4)cc3)ccc21 [Example 303] | – | 28.6% | 278 nM | – |
| CC1CC(C)CN(C(=O)c2ccc(-c3ccc4c(n3)Oc3ccccc3[C@@H]4C(C)(C)C(=O)Nc3nncs3)cc2)C1 (stereo partly shown) [Example 305] | – | 38.3% | 24.7 nM | – |
| CC(=O)N[C@@H]1CCN(C(=O)c2ccc(-c3ccc4c(n3)Oc3ccccc3[C@@H]4C(C)(C)C(=O)Nc3nncs3)cc2)C1 [Example 306] | – | 43.5% | 9.85 nM | – |
| CN(C)[C@@H]1CCN(C(=O)c2ccc(-c3ccc4c(n3)Oc3ccccc3[C@@H]4C(C)(C)C(=O)Nc3nncs3)cc2)C1 [Example 307] | – | 37.1% | 67.5 nM | – |
| CC(C)(C(=O)Nc1nncs1)[C@H]1c2ccccc2Oc2nc(-c3ccc(C(=O)NCc4ccccc4)cc3)ccc21 [Example 349] | – | 31.7% | 5.88 nM | – |
| CC(C)(C(=O)Nc1nncs1)[C@H]1c2ccccc2Oc2nc(-c3ccc(C(=O)NCCc4ccccc4)cc3)ccc21 [Example 354] | – | 28.9% | 20.1 nM | – |
| CC(C)(C(=O)Nc1nncs1)[C@H]1c2ccccc2Oc2nc(-c3ccc(C(=O)NCCO)cc3)ccc21 [Example 357] | – | 29.6% | 31.4 nM | – |
| CCCCCCc1ccc2c(n1)Oc1ccccc1[C@@H]2C(C)(C)C(=O)Nc1nncs1 [Example 437] | – | – | 11.1 nM | – |
| CN(C)C(=O)c1ccc(-c2ccc3c(n2)Oc2ccccc2C3C(C)(C)C(=O)Nc2ccccn2)cc1 (stereo not shown) [Example 438] | – | – | 53.1 nM | – |
| CN(C)C(=O)c1ccc(-c2ccc3c(n2)Oc2ccccc2C3C(C)(C)C(=O)Nc2ncn[nH]2)cc1 (stereo not shown) [Example 439] | – | – | 65.8 nM | – |
| CN(C)C(=O)c1ccc(-c2ccc3c(n2)Oc2ccccc2C3C(C)(C)C(=O)Nc2ncc[nH]2)cc1 (stereo not shown) [Example 440] | – | – | 21 nM | – |
| CC(C)(C(=O)Nc1nncs1)[C@H]1c2ccccc2Oc2nc(-c3ccc4c(c3)CCC4=O)ccc21 [Example 451] | – | – | 5.57 nM | – |
| CN(C)C(=O)n1cc(-c2ccc3c(n2)Oc2ccccc2[C@@H]3C(C)(C)C(=O)Nc2nncs2)cn1 [Example 453] | – | – | 17.6 nM | – |
| CN(C)C(=O)c1ccc(-c2ccc3c(n2)Oc2ccccc2[C@@H]3C(C)(C)C(=O)Nc2nncs2)s1 [Example 462] | – | – | 3.78 nM | – |
| Cc1nnc(NC(=O)C(C)(C)[C@H]2c3ccccc3Oc3nc(-c4cc(F)c(C(=O)N(C)C)c(F)c4)ccc32)s1 [Example 469] | – | – | 49.8 nM | – |
| Cc1nnc(NC(=O)C(C)(C)[C@H]2c3ccccc3Oc3nc(-c4ccc(C(=O)N5CCC(=O)CC5)cc4)ccc32)s1 [Example 475] | – | – | – | 18.3 nM |
| Cc1nnc(NC(=O)C(C)(C)[C@H]2c3ccccc3Oc3nc(-c4ccc(OC(C)C)c(Cl)c4)ccc32)s1 [Example 476] | – | – | 16.4 nM | – |
| CN(C)C(=O)c1ccc(-c2ccc3c(n2)Oc2ccccc2C3C2(C(=O)Nc3nncs3)CCOCC2)cc1 (stereo not shown) [Example 483] | – | – | 426 nM | – |
| CN(C)C(=O)c1ccc(-c2ccc3c(n2)Oc2ccccc2C3C2(C(=O)Nc3nncs3)CC2)cc1 (stereo not shown) [Example 489] | – | – | 144 nM | – |
| CN(C)C(=O)c1ccc(-c2ccc3c(c2)Oc2ncccc2C3C(C)(C)C(=O)Nc2nncs2)cc1 (stereo not shown) [Example 490] | – | – | 14.8 nM | – |
| CN(C)C(=O)c1ccc(-c2ccc3c(n2)Oc2ccccc2C3CC(=O)Nc2nncs2)cc1 (stereo not shown) [Example 491] | – | – | > 1150 nM | – |
| Cc1nnc(NC(=O)C(C)(C)C2c3ccccc3Oc3cc(-c4ccc(C(=O)N5CCOCC5)cc4)ncc32)s1 (stereo not shown) [Example 493] | – | – | 109 nM | – |
